Measurements: US8658351B2, “Determining liver toxicity of an agent using metabolite biomarkers” (Metabolon, Inc., priority 2009, dated 2014)
Where two headings read alike, the source gives them in different places.

Experiments:
Rats [1] = assay: Rat liver toxicant study: liver histopathology; settings: for Histopathology (Cholestasis) / Histopathology (Necrosis) / Histopathology (Steatosis): rats, daily single oral dose; for Histopathology (Cholestasis) / Histopathology (Steatosis): day at which change was seen; for Histopathology (Necrosis): day at which change was seen (samples day 2 and day 5)
Experimental: Rats were treated daily with a single oral dose of a known liver toxicants at low and high doses (as shown in Table 3) as well as with a vehicle control containing none of the toxicant. The hepatotoxic agents listed in Table 3 are known to induce distinct types of liver histopathology as described in Table 4. Plasma, urine, and liver samples were collected at day 2 and day 5 for metabolomic analysis, liver histopathology, and routine clinical chemistry (i.e., aspartate aminotransferase (AST), alanine aminotransferase (ALT), total bilirubin (TBIL), alkaline phosphatase (ALP)).

Rats [2] = assay: Rat liver toxicant study: routine clinical chemistry (AST, ALT, TBIL, ALP); type: in vivo; settings: day at which change was seen
Experimental: Rats were treated daily with a single oral dose of a known liver toxicants at low and high doses (as shown in Table 3) as well as with a vehicle control containing none of the toxicant. […] Plasma, urine, and liver samples were collected at day 2 and day 5 for metabolomic analysis, liver histopathology, and routine clinical chemistry (i.e., aspartate aminotransferase (AST), alanine aminotransferase (ALT), total bilirubin (TBIL), alkaline phosphatase (ALP)).

Rats [3] = settings: cited from earlier work
humans = settings: cited from earlier work
[4] = classified as No Rat Tox/Human specific
[5] = High dose, agents known to induce distinct types of liver histopathology

S=C=Nc1cccc2ccccc12 [ANIT, 1-naphthyl isothiocyanate]
Histopathology (Cholestasis) (Rats [1]; high dose): Day2~
Histopathology (Cholestasis) (Rats [1]; low dose): Day5
Clinical Chemistry ALT (Rats [2]; high dose): Day2~
Clinical Chemistry AST (Rats [2]; high dose): Day2~
Clinical Chemistry TBIL (Rats [2]; high dose): Day2~
Clinical Chemistry ALT (Rats [2]; low dose): Day5
Clinical Chemistry TBIL (Rats [2]; low dose): Day5

Clc1ccccc1CN1CCc2sccc2C1 [Ticlopidine]
Histopathology (Necrosis) (Rats [1]; high dose): Day5

O=C(O)COc1nn(Cc2ccccc2)c2ccccc12 [Bendazac]
Histopathology (Necrosis) (Rats [1]; high dose): Day5
Histopathology (Necrosis) (Rats [1]; low dose): Day5
Clinical Chemistry ALP (Rats [2]; high dose): Day2~
Clinical Chemistry ALT (Rats [2]; high dose): Day5
Clinical Chemistry ALP (Rats [2]; low dose): Day2
Clinical Chemistry ALT (Rats [2]; low dose): Day5
Classification of toxic effect on liver histopathology (type of histopathology) (Rats [3]; rat, in vivo): Necrosis

CS(=O)(=O)Nc1ccc([N+](=O)[O-])cc1Oc1ccccc1 [Nimesulide]
Hepatotoxic changes in rats (histopathology, clinical chemistry) (Rats [1]; rat, in vivo): no hepatotoxic changes
Clinical Chemistry TBIL (Rats [2]; high dose): Day2
Clinical Chemistry ALT (Rats [2]; low dose): Day5
Clinical Chemistry TBIL (Rats [2]; low dose): Day2

NC(=O)N1c2ccccc2C=Cc2ccccc21 [Carbamazepine]
Hepatotoxic changes in rats (histopathology, clinical chemistry) (Rats [1]; [4]): no hepatotoxic changes
Hepatotoxicity to humans (humans): known hepatotoxins to humans
Classification of toxic effect on liver histopathology (type of histopathology) (Rats [3]; rat, in vivo): No Histopathology

CC(C)C(=O)Nc1ccc([N+](=O)[O-])c(C(F)(F)F)c1 [Flutamide]
Hepatotoxic changes in rats (histopathology, clinical chemistry) (Rats [1]; [4]): no hepatotoxic changes
Clinical Chemistry TBIL (Rats [2]; high dose): Day2
Hepatotoxicity to humans (humans): known hepatotoxins to humans
Classification of toxic effect on liver histopathology (type of histopathology) (Rats [3]; rat, in vivo): No Histopathology

ClC(Cl)(Cl)Cl [Carbon tetrachloride]
Histopathology (Steatosis) (Rats [1]; high dose): Day2~
Histopathology (Steatosis) (Rats [1]; low dose): Day2~
Classification of toxic effect on liver histopathology (type of histopathology) (Rats [3]; [5]): Steatosis

CCSCCC(N)C(=O)O (racemic) [Ethionine, DL Ethionine]
Histopathology (Steatosis) (Rats [1]; high dose): Day2~
Histopathology (Steatosis) (Rats [1]; low dose): Day2
Clinical Chemistry TBIL (Rats [2]; high dose): Day2~
Clinical Chemistry TBIL (Rats [2]; low dose): Day2~
Classification of toxic effect on liver histopathology (type of histopathology) (Rats [3]; [5]): Steatosis

CN(C)[C@@H]1C(O)=C(C(N)=O)C(=O)[C@@]2(O)C(O)=C3C(=O)c4c(O)cccc4[C@@](C)(O)[C@H]3C[C@@H]12 [Tetracycline]
Histopathology (Steatosis) (Rats [1]; high dose): Day5
Histopathology (Steatosis) (Rats [1]; low dose): Day2~

CC(=O)N1CCN(c2ccc(OCC3COC(Cn4ccnc4)(c4ccc(Cl)cc4Cl)O3)cc2)CC1 (stereo not shown) [Ketoconazole]
Classification of toxic effect on liver histopathology (type of histopathology) (Rats [3]; rat, in vivo): Phospholipidosis

CN(C)CCN(Cc1cccs1)c1ccccn1 [Methapyrilene]
Histopathology (Necrosis) (Rats [1]; high dose): Day2~
Histopathology (Necrosis) (Rats [1]; low dose): Day5
Clinical Chemistry ALP (Rats [2]; high dose): Day5
Clinical Chemistry ALT (Rats [2]; high dose): Day2~
Clinical Chemistry AST (Rats [2]; high dose): Day2~
Clinical Chemistry TBIL (Rats [2]; high dose): Day2~
Clinical Chemistry ALT (Rats [2]; low dose): Day5
Clinical Chemistry AST (Rats [2]; low dose): Day5
Clinical Chemistry TBIL (Rats [2]; low dose): Day5
Classification of toxic effect on liver histopathology (type of histopathology) (Rats [3]; rat, in vivo): Necrosis

CC(=O)Nc1ccc(O)cc1 [Acetaminophen]
Histopathology (Necrosis) (Rats [1]; high dose): Day2
Histopathology (Necrosis) (Rats [1]; low dose): Day2
